The source of these data is patent US20050020582A1 (priority 2001, published 2005).

Data set [1] concerns neuroblastoma cells (ScN2a). As to conditions: mouse.
The conditions of data set [2]: human, in vivo, cited from earlier work.

Read-outs that look alike come from different tables or passages of the source.

Regarding `CN(C)CCCN1c2ccccc2Sc2ccc(Cl)cc21` [chlorpromazine], the “decrease in cell population (cytotoxic effects)” value in data set [1] stood at 50%.

Consider `CCN(CC)CCCC(C)Nc1c2ccc(Cl)cc2nc2ccc(OC)cc12` (stereo not shown) [quinacrine], for which the “concentrations without cytotoxic effects on neuroblastoma cells” value in data set [1] is < 5 µM.

`CSc1ccc2c(c1)N(CCC1CCCCN1C)c1ccccc1S2` (stereo not shown) [thioridazine]: the brain concentration entry in data set [2] (po) was “more than 80 μM”; in data set [2], 20 µM.
